Legend:
[1] = test system: Zucker fatty rats; experiment: Plasma triglyceride (TG) level in Zucker fatty rats, enzymatic method; type: in vivo, rat; settings: compound A 3 mg/kg, oral once a day for 14 days, blood on day 14 after four-hour fasting
Method: (§1) This test employed (R)-2-[3-[[N-(benzoxazol2-yl) -N-3-(4-methoxyphenoxy)propyl]aminomethyl]phenoxy]butyric acid (hereinafter will be referred to as “compound A”), which is an optically active substance of the compound disclosed in Example 14 in Patent Document 2. Compound A or fenofibrate was administered to Zucker fatty rats, and the effects of the compound on plasma triglyceride (TG) level, plasma FGF21 level, and epididymal fat weight were determined through the below-described methods.
(§2) Hyperlipidemic Zucker fatty rats with obesity due to overeating (Crlj: ZUC-Lepr Genotype: fa/fa) and Zucker lean rats without obesity (Crlj: ZUC-Lepr Genotype: fa/+ or +/+) were purchased from Charles River Laboratories Japan Inc. (eight weeks old upon test).
(§3) Throughout the test period, the rats were reared in a rearing cage (light-dark cycle (light period by interior lighting: 7:00 a.m. to 7:00 p.m.), temperature: 23+3° C., humidity: 55±15%) under conditions where solid feed (CE-2, product of Oriental Yeast Co., Ltd.) and tap water were fed ad libitum. […]
(§4) On day 14 after initiation of administration, blood was collected after four-hour fasting following administration, and plasma triglyceride level and plasma FGF21 level were measured through an enzymatic method and ELISA (Human FGF-21 ELISA Kit, product of Biovender), respectively. […]

[2] = test system: Zucker fatty rats; experiment: Adverse events and feed intake during administration to Zucker fatty rats; type: in vivo, rat
Method: Rats were divided into the following four groups (six rats per group) so that body weights, plasma total cholesterol levels, and plasma triglyceride levels were averaged in the groups: a first group (control), a second group (administration of compound A (1 mg/kg)), a third group (administration of compound A (3 mg/kg)), and a fourth group (administration of fenofibrate (300 mg/kg)). A group of five Zucker lean rats was employed as a negative control group.
Each drug was orally administered once a day (in the morning) for continuous 14 days. A 0.5 mass % aqueous methylcellulose solution (2 mL/kg) was orally administered to the rats of the first group (control).
However, from 11 days to 14 days after administration, feed intake was reduced by 14% in the rats of the group of fenofibrate administration, which raised a concern about the toxicity of fenofibrate. Even under such a situation, fat weight tended to decrease only slightly.

[3] = test system: KK-Ay mice; experiment: Fat weight reducing effect on obesity model mice (KK-Ay mice); type: in vivo, mouse; settings: oral once a day for 35 days
Method: This test employed compound A, as well as (R)2-[3-[ [N-(5-fluorobenzoxazol2-yl)-N2-phenoxyethyl]aminomethyl]phenoxy]butyric acid (hereinafter will be referred to as “compound B”), which is an optically active substance of the compound disclosed in Example 229 in Patent Document 2. Compound A, compound B, or fenofibrate was administered to KK-Ay mice, and the effects of the compound on epididymal fat weight and mesenteric fat weight were determined through the below-described methods.
Method: Male KK-Ay mice (KK-Ay/TaJcl) were purchased from Clea Japan, Inc. (10 weeks old upon test). Each compound was orally administered to mice once a day for […]. Throughout the test period, the mice were reared in a rearing cage (light-dark cycle (light period by interior lighting: 7:00 a.m. to 7:00 p.m.), temperature: 23±3° C., humidity: 55+15%) under conditions where solid feed (CE-2, product of Oriental Yeast Co., Ltd.) and tap water were fed ad libitum.
Each of compound A, compound B, and fenofibrate was suspended in a 0.5 mass % aqueous solution of methylcellulose (Metolose (registered trademark), SM-400, product of Shin-Etsu Chemical Co., Ltd.) so that the dose of the aqueous solution was adjusted to 5 mL/kg. The resultant suspension was refrigerated in a light-shielding bottle at 4° C., and drug preparation was carried out every seven days.
(§5) Animals were divided into the following four groups (six animals per group): a first group (control), a second group (administration of compound A (1 mg/kg)), a third group (administration of compound B (3 mg/kg)), and a fourth group (administration of fenofibrate (300 mg/kg)).
(§6) Each drug was orally administered once a day (in the morning) for 35 days. A 0.5 mass % aqueous methylcellulose solution was orally administered (5 mL/kg) to the animals of the first group (control).
After completion of administration, epididymal fat and mesenteric fat were removed and weighed.
The results were represented as percent reduction (mean value) in fat weight in each compound administration group with respect to the control group.

[4] = test system: Zucker fatty rats; experiment: Epididymal fat weight (indicator of visceral fat weight) in Zucker fatty rats; type: in vivo, rat; settings: compound A 3 mg/kg, oral once a day for 14 days
Method: as §1, §2, §3, §4

[5] = test system: FGF21; experiment: Plasma FGF21 level in Zucker fatty rats, ELISA; type: in vivo, rat; settings: compound A 3 mg/kg, oral once a day for 14 days, day 14
Method: as §1, §2, §3, §4

[6] = test system: KK-Ay mice; settings: mouse, in vivo, 1 mg/kg
Method: as §5, §6

[7] = test system: rat model; settings: cited from earlier work

CC[C@@H](Oc1cccc(CN(CCCOc2ccc(OC)cc2)c2nc3ccccc3o2)c1)C(=O)O [Compound A, (R)-2-[3-[[N-(benzoxazol2-yl) -N-3-(4-methoxyphenoxy)propyl]aminomethyl]phenoxy]butyric acid]
plasma triglyceride level versus control group [1]: significantly (p<0.05) lower than that in the control group
adverse events during the period of administration ([2]; rat, in vivo, po): adverse events were not particularly observed
Epididymal fat weight, percent reduction (mean value) with respect to the control group ([3]; 1 mg/kg): 27%
Mesenteric fat weight, percent reduction (mean value) with respect to the control group ([3]; 1 mg/kg): 20%
epididymal fat weight versus control group [4]: considerably and statistically significantly lower than that in the control group
plasma FGF21 level versus control group [5]: significantly (p<0.001) higher than that in the control group
adverse events during the period of administration [6]: adverse events were not particularly observed

CC[C@@H](Oc1cccc(CN(CCOc2ccccc2)c2nc3cc(F)ccc3o2)c1)C(=O)O [Compound B, (R)2-[3-[ [N-(5-fluorobenzoxazol2-yl)-N2-phenoxyethyl]aminomethyl]phenoxy]butyric acid]
Mesenteric fat weight, percent reduction (mean value) with respect to the control group ([3]; 3 mg/kg): 17%

CC(C)OC(=O)C(C)(C)Oc1ccc(C(=O)c2ccc(Cl)cc2)cc1 [Fenofibrate, fenofibrate]
feed intake compared with control group ([2]; fenofibrate 300 mg/kg, Zucker fatty rats, for 10 days after administration): maintained equal to that in the rats of the control group
reduction of feed intake ([2]; fenofibrate 300 mg/kg, Zucker fatty rats, from 11 days to 14 days after administration): 14%
Epididymal fat weight, percent reduction (mean value) with respect to the control group ([3]; 300 mg/kg): 15%
Mesenteric fat weight, percent reduction (mean value) with respect to the control group ([3]; 300 mg/kg): 13%
adverse events at high dose ([7]; high dose of fenofibrate, rat model): adverse events (e.g., decrease in hemoglobin, or necrosis of liver cells) occur in the model
adverse events ([7]; rats, dose of 30 mg/kg or more): various adverse events occur in the rats
